The source of these data is US20120220664A1, “USE OF METFORMIN IN CANCER TREATMENT AND PREVENTION” (priority 2009, published 2012).

For data set [1], the system named is cancer stem cells (CD44high/CD24low) from MCF10A-ER-Src tumors. The note with it: after 3 cycles of treatment (day 25); FIG. 4B.
Data set [2] deals with cancer stem cells (CD44high/CD24low) and cancer cells (CD44low/CD24high) of transformed MCF-10A or MCF-7 cells. The note with it: doxorubicin, 0.1 mM metformin, or both; FIG. 3A.
In data set [3] the test system is MCF10A ER-Src xenograft tumors.
Data set [4] concerns MCF10A-ER-Src cells. The data set is described as follows: Focus formation of TAM-treated MCF10A-ER-Src cells (FIG. 1B). Format: cell-based, human.
Data set [5] concerns MCF10A ER-Src cells. Put plainly: Wound healing motility / invasion assay. Format: cell-based, human. Conditions: 0.1 mM metformin and/or TAM; data not shown.
Data set [6] has as its system MCF10A ER-Src cells. The data set is described as follows: Colony formation assay in soft agar (FIG. 1B). In kind it is cell-based, human. The note with it: TAM-treated cells.
For data set [7], the system named is non-transformed cells (MCF10A-ER-Src). Put plainly: Growth of non-transformed MCF10A-ER-Src cells with metformin (FIG. 1A). Format: cell-based, human. The note with it: 0.1 or 0.3 mM metformin, 24 hours.
The subject of data set [8] is MCF10A-ER-Src cells. Put plainly: Mammosphere formation (FIG. 1B). Format: cell-based, human. The note with it: TAM-treated cells.
Data set [9] relates to mammospheres derived from all four breast cancer cell lines (MCF10A ER-Src, MCF7, SKBR3, MDA-MB-468). Put plainly: Mammosphere growth, 6-day old mammospheres (FIG. 2). In kind it is cell-based, human. Conditions: 0.1 mM metformin, within 48 hours.
Data set [10] has as its system MCF10A-ER-Src cancer stem cells. Put plainly: Tumor formation in nude mice by metformin-pretreated cancer stem cells (FIG. 3C). In kind it is in vivo. The note with it: cells treated with 0.1 mM metformin for 1 hour prior to injection, month after injection.
Data set [11] has as its system sorted cancer stem cells and non-stem cancer cells of MCF10A ER-Src, MCF7, SKBR3 and MDA-MB-468. The data set is described as follows: Growth of sorted cancer stem cells and non-stem cancer cells (FIG. 3B). Conditions: 0.1 mM metformin, 0, 24, 48 hours, all four cancer cell lines. Format: cell-based, human.
Data set [12] has as its system MCF10A ER-Src cells. Put plainly: Morphological transformation of TAM-induced MCF10A ER-Src cells (phase-contrast). Format: cell-based, human. Conditions: 0.1 mM metformin and/or TAM for 36 hours; data not shown.
For data set [13] the following is noted: general statement; cited from earlier work.

Consider `COc1cccc2c1C(=O)c1c(O)c3c(c(O)c1C2=O)C[C@@](O)(C(=O)CO)C[C@@H]3O[C@H]1C[C@H](N)[C@H](O)[C@H](C)O1` [doxorubicin], for which the “cancer stem cells in tumors” value in [1] is on record as “easily detected”. In addition, the “killing of cancer stem cells versus cancer cells in the mixed transformed population” value in data set [2] is recorded as “kills cancer cells, but not cancer stem cells”. Besides, the “decrease in tumor volume” value in data set [3] (after 15 days of treatment (3 cycles every 5 days, i.p.), 4 mg/kg doxorubicin) was found to be 2 fold. Further, the “time until tumor growth resumed after treatment” value in data set [3] (after treatment with doxorubicin alone, FIG. 4A) was 20 days. In data set [3] (compared with absence of treatment), the “rate of tumor growth after relapse” value was “comparable to that observed in the initial disease”. In data set [3] (day 35), the “tumor volume after an additional 10 days” value is reported as “further reduction in tumor volume”.

Regarding `CN(C)C(=N)N=C(N)N` [metformin], in data set [4], the focus formation entry was “strongly inhibited”. In addition, in data set [5], the “invasive growth in wound-healing assays” value is listed as “strongly inhibited”. For the same molecule, the “killing of cancer stem cells versus cancer cells in the mixed transformed population” value in data set [2] is “preferentially killed cancer stem cells”. Also, the “effect on tumors / tumor volume” value in data set [3] (after 15 days of treatment (3 cycles every 5 days, i.p.), 4 mg/kg doxorubicin, 100 μg/ml metformin, or both) is “little effect”. For the same molecule, the “formation of colonies in soft agar” value in data set [6] is reported as “strongly inhibited”. Besides, the “growth of non-transformed cells” value in data set [7] is “does not affect the growth of non-transformed cells”. The generation of mammospheres entry in data set [8] is listed as “strongly inhibited”. In data set [9], the number of mammospheres entry was “dramatic reduction in the number of mammospheres”. In data set [10], the “ability of cancer stem cells to form tumors in nude mice” value is on record as “blocked the ability of these cells to form tumors”. Moreover, in data set [11], the “effect on sorted standard (non-stem) cancer cell population” value is “essentially unaffected” and the “susceptibility of sorted cancer stem cells” value is reported as “quite susceptible”. Also, the morphological transformation result in data set [12] is “strongly inhibited”. Besides, the “crossing of the blood brain barrier” value in [13] is reported as “can cross the blood brain barrier”.
